Data: patent US10065990B2, “Cyclic peptide compound, and preparation method, pharmaceutical composition and use thereof” (HANGZHOU GUANYU BIO-MEDICAL CO., LTD, priority 2013, dated 2018)
Read-outs that look alike come from different tables or passages of the source.

What was measured:
HDAC7 = target: T1, HDAC7 (Homo sapiens, UniProt Q8WUI4); assay: HDAC biochemical activity measurement (fluorescent substrate deacetylation);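 note: fluorogenic deacetylation assay using acetyl-lysine substrate at 20 µM, enzyme and compound incubated 30 min at 37 °C, then developer added, fluorescence read at 360/460 nm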; conditions: HDAC7; 37° C. 30 minutes
T1 sequence (Q8WUI4 1-952): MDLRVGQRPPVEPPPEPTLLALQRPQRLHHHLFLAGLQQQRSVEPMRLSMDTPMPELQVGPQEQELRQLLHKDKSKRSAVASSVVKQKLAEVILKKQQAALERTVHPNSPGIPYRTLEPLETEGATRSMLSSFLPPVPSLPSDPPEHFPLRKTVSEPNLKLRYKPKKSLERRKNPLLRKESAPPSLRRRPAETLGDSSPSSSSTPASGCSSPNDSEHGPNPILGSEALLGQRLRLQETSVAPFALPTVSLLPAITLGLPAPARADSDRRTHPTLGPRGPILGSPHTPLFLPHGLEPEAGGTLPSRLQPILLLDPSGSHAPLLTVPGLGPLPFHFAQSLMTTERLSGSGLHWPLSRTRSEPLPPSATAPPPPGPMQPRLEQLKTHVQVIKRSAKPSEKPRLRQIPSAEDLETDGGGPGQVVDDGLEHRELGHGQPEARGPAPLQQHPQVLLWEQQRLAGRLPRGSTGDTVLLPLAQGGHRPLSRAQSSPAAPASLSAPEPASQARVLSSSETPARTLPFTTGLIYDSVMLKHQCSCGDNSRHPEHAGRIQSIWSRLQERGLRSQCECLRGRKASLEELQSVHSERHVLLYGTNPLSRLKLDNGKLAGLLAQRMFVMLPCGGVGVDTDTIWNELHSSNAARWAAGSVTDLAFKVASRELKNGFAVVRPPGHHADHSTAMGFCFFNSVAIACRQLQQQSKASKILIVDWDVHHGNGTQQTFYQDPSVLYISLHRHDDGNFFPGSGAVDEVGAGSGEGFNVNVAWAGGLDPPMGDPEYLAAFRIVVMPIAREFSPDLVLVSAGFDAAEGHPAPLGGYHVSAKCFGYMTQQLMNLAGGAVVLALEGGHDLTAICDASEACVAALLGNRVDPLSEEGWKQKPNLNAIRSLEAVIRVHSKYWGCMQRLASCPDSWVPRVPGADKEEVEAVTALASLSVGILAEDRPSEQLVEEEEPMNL

[1] = tested on: A549 (human lung cancer cells); assay: MTT cancer cell growth inhibition; type: cell-based; conditions: MTT, 72 hours incubation, read-out: GI50 A54
Text: (§1) MTT assay principle is yellow MTT can penetrate membrane into the cell, succinic dehydrogenase of the mitochondria in living cells can make exogenous MTT reduction of insoluble in water of blue-violet acicular formazan for crystallization and deposition in the cell, crystallization can be dissolved dimethyl sulfoxide (DMSO) solution, detected its absorbance at 490 nm/570 nm wavelength by enzyme-linked immunosorbent assay, which can reflect the number of cells.
(§2) Using DMEM+10% FBS culture medium or using 1640+10% FBS culture, respectively.
(§3) a) Cells were seeded in 96-well plates with the inoculation of 1500/well, 190 μl/hole, 37° C., 5% of CO2 incubator overnight;
(§4) b) The next day each well was added 10 μl of different drugs. The final concentration of drug was 10^−5˜10^−10M, three parallel holes; 37° C., 5% CO2 culture incubator for 72 hours incubation;
(§5) c) Per well was added 20 μl 5 mg/ml of MTT, 37° C., 5% CO2 culture incubator for 4 hours incubation;
(§6) d) The supernatant was discarded. Each well was added 100 μl of DMSO and oscillation;
(§7) e) 570 nm readings. Calculate cell viability. GI50 calculation based on the results.

[2] = tested on: BGC-823 (human gastric cancer cells); assay: MTT cancer cell growth inhibition; type: cell-based; conditions: MTT, 72 hours incubation, read-out: GI50 BG
Text: as §1, §2, §3, §4, §5, §6, §7

[3] = tested on: Bel-7402 (human hepatoma cells); assay: MTT cancer cell growth inhibition; type: cell-based; conditions: MTT, 72 hours incubation, Bel-7402 cells, read-out: GI50 Bel-7402
Text: as §1, §2, §3, §4, §5, §6, §7

[4] = tested on: DU145 (human prostate cancer cells); assay: MTT cancer cell growth inhibition; type: cell-based; conditions: MTT, 72 hours incubation, read-out: GI50 Du1
Text: as §1, §2, §3, §4, §5, §6, §7

[5] = tested on: H1975 (non-small cell lung adenocarcinoma); assay: MTT cancer cell growth inhibition; type: cell-based; conditions: MTT, 72 hours incubation, H1975 cells, read-out: GI50 H1975
Text: as §1, §2, §3, §4, §5, §6, §7

[6] = tested on: HCC827 (human non-small cell lung cancer cells); assay: MTT cancer cell growth inhibition; type: cell-based; conditions: MTT, 72 hours incubation, HCC827 cells, read-out: GI50 HCC827
Text: as §1, §2, §3, §4, §5, §6, §7

[7] = tested on: HT1080 (human fibrosarcoma cells); assay: MTT cancer cell growth inhibition; type: cell-based; conditions: MTT, 72 hours incubation, read-out: GI50 HT1
Text: as §1, §2, §3, §4, §5, §6, §7

[8] = tested on: Hela (human cervical cancer cells); assay: MTT cancer cell growth inhibition; type: cell-based; conditions: MTT, 72 hours incubation, read-out: GI50 Hela
Text: as §1, §2, §3, §4, §5, §6, §7

[9] = tested on: Huh-7 (human hepatoma cells); assay: MTT cancer cell growth inhibition; type: cell-based; conditions: MTT, 72 hours incubation, Huh-7 cells, read-out: GI50 Huh-7
Text: as §1, §2, §3, §4, §5, §6, §7

[10] = tested on: K562 (human leukemia cells); assay: MTT cancer cell growth inhibition; type: cell-based; conditions: MTT, 72 hours incubation, K562 cells, read-out: GI50 K562
Text: as §1, §2, §3, §4, §5, §6, §7

[11] = tested on: KBM-5 (human chronic myelogenous leukemia); assay: MTT cancer cell growth inhibition; type: cell-based; conditions: MTT, 72 hours incubation, KBM-5 cells, read-out: GI50 KBM-5
Text: as §1, §2, §3, §4, §5, §6, §7

[12] = tested on: KBM5-T315I (human chronic myelogenous leukemia); assay: MTT cancer cell growth inhibition; type: cell-based; conditions: MTT, 72 hours incubation, KBM5-T315I cells, read-out: GI50 KBM5-T315I
Text: as §1, §2, §3, §4, §5, §6, §7

[13] = tested on: MCF-7 (human breast cancer cells); assay: MTT cancer cell growth inhibition; type: cell-based; conditions: 72 hours incubation, read-out: GI50 MCF
Text: as §1, §2, §3, §4, §5, §6, §7

[14] = tested on: MDA-MB-231 (breast cancer cells); assay: MTT cancer cell growth inhibition; type: cell-based
Text: as §1, §2, §3, §4, §5, §6, §7

[15] = tested on: MOLT-4 (human acute lymphoblastic leukemia cells); assay: MTT cancer cell growth inhibition; type: cell-based; conditions: MTT, 72 hours incubation, read-out: GI50 Mol
Text: as §1, §2, §3, §4, §5, §6, §7

[16] = tested on: N-87 (human gastric cancer cells); assay: MTT cancer cell growth inhibition; type: cell-based; conditions: MTT, 72 hours incubation, N-87 cells, read-out: GI50 N-87
Text: as §1, §2, §3, §4, §5, §6, §7

[17] = tested on: PANC-1 (Pac-1, human pancreatic cancer cells); assay: MTT cancer cell growth inhibition; type: cell-based; conditions: MTT, 72 hours incubation, read-out: GI50 PAN
Text: as §1, §2, §3, §4, §5, §6, §7

[18] = tested on: SGC-7901 (human gastric cancer cells); assay: MTT cancer cell growth inhibition; type: cell-based; conditions: MTT, 72 hours incubation, SGC-7901 cells, read-out: GI50 SGC-7901
Text: as §1, §2, §3, §4, §5, §6, §7

[19] = tested on: U937 (human leukemia cells); assay: MTT cancer cell growth inhibition; type: cell-based; conditions: MTT, 72 hours incubation, read-out: GI50 U93
Text: as §1, §2, §3, §4, §5, §6, §7

[20] = tested on: lncap (prostate cancer cells); assay: MTT cancer cell growth inhibition; type: cell-based; conditions: MTT, 72 hours incubation, read-out: GI50 lnca
Text: as §1, §2, §3, §4, §5, §6, §7

[21] = Homo sapiens, A549, 72 h, A549 cells
[22] = Homo sapiens, BGC-823, 72 h, BGC-823 cells
[23] = Homo sapiens, DU-145, 72 h, DU145 cells
[24] = Homo sapiens, HT-1080, 72 h, HT1080 cells
[25] = Homo sapiens, HeLa, 72 h, Hela cells
[26] = Homo sapiens, MCF7, 72 h, MCF-7 cells
[27] = Homo sapiens, MDA-MB-231, 72 h, read-out: GI50 MDA-MB-231, MTT, 72 hours incubation, MDA-MB-231 cells
[28] = Homo sapiens, MOLT-4, 72 h, MOLT-4 cells
[29] = Homo sapiens, PANC-1, 72 h, PANC-1 cells
[30] = Homo sapiens, U-937, 72 h, U937 cells
[31] = Homo sapiens, LNCaP, 72 h, lncap cells

Structure (SMILES) | IC50 HDAC7 (HDAC7) | GI50 [1, 21] | GI50 [2, 22] | GI50 ([3]; Homo sapiens, Bel-7402, 72 h) | GI50 [4, 23] | GI50 ([5]; Homo sapiens, NCI-H1975, 72 h) | GI50 ([6]; Homo sapiens, HCC827, 72 h) | GI50 [7, 24] | GI50 [8, 25] | GI50 ([9]; Homo sapiens, Huh-7, 72 h) | GI50 ([10]; Homo sapiens, K562, 72 h) | GI50 ([11]; Homo sapiens, KBM5, 72 h) | GI50 ([12]; Homo sapiens, 72 h) | GI50 [13, 26] | GI50 [14, 27] | GI50 [15, 28] | GI50 ([16]; Homo sapiens, 72 h) | GI50 [17, 29] | GI50 ([18]; Homo sapiens, SGC-7901, 72 h) | GI50 [19, 30] | further results
C=C1NC(=O)c2cc(F)cc(n2)CNC(=O)C[C@@H](/C=C/CCS)OC(=O)[C@H](C(C)C)NC1=O [Compound 133] | no activity |  |  |  |  |  |  |  |  |  |  |  |  |  |  |  |  |  |  |  | GI50 [1]: 50 nM; GI50 [2]: 50 nM; GI50 [3]: 32 nM; GI50 [4]: 70 nM; GI50 [5]: 31 nM; GI50 [6]: 36 nM; GI50 [7]: 80 nM; GI50 [8]: 20 nM; GI50 [9]: 33 nM; GI50 [10]: 16 nM; GI50 [11]: 36 nM; GI50 [12]: 16 nM; GI50 [13]: 70 nM; GI50 ([14]; read-out: GI50 MDA-MB-231, MTT, 72 hours incubation, MDA-MB-231 cells): 35 nM; GI50 [15]: 80 nM; GI50 [16]: 66 nM; GI50 [17]: 50 nM; GI50 [18]: 35 nM; GI50 [19]: 50 nM; GI50 [20]: 80 nM
C/C=C1\NC(=O)c2ccc(SC)c(n2)CNC(=O)C[C@@H](/C=C/CCSC(=O)CCCCC)OC(=O)[C@H](C(C)C)NC1=O [Compound 155] | no activity | 40 nM | 40 nM | 41 nM | 50 nM | 23 nM | 23 nM | 90 nM | 40 nM | 38 nM | 75 nM | 35 nM | 56 nM | 50 nM | 11 nM | 90 nM | 32 nM | 40 nM | 33 nM | 40 nM | GI50 [20, 31]: 40 nM
C/C=C1\NC(=O)c2ccc(SC)c(n2)CNC(=O)C[C@@H](/C=C/CCSC(=O)CCC)OC(=O)[C@H](C(C)C)NC1=O [Compound 161] | no activity | 80 nM | 20 nM | 47 nM | 20 nM | 57 nM | 65 nM | 50 nM | 10 nM | 79 nM | 31 nM | 13 nM | 12 nM | 70 nM | 46 nM | 30 nM | 37 nM | 10 nM | 91 nM | 60 nM | GI50 [20, 31]: 70 nM

More lines, in order of falling GI50 [1, 21], values ahead:

IC50 HDAC7 (HDAC7) | GI50 [1, 21] | GI50 [2, 22] | GI50 ([3]; Homo sapiens, Bel-7402, 72 h) | GI50 [4, 23] | GI50 ([5]; Homo sapiens, NCI-H1975, 72 h) | GI50 ([6]; Homo sapiens, HCC827, 72 h) | GI50 [7, 24] | GI50 [8, 25] | GI50 ([9]; Homo sapiens, Huh-7, 72 h) | GI50 ([10]; Homo sapiens, K562, 72 h) | GI50 ([11]; Homo sapiens, KBM5, 72 h) | GI50 ([12]; Homo sapiens, 72 h) | GI50 [13, 26] | GI50 [14, 27] | GI50 [15, 28] | GI50 ([16]; Homo sapiens, 72 h) | GI50 [17, 29] | GI50 ([18]; Homo sapiens, SGC-7901, 72 h) | GI50 [19, 30] | Structure (SMILES) | further results
no activity | 30 nM | 60 nM | 56 nM | 20 nM | 48 nM | 17 nM | 40 nM | 10 nM | 35 nM | 62 nM | 62 nM | 33 nM | 30 nM | 69 nM | 50 nM | 35 nM | 30 nM | 12 nM | 40 nM | C/C=C1\NC(=O)c2ccc(SC)c(n2)CNC(=O)C[C@@H](/C=C/CCS)OC(=O)[C@H](C(C)C)NC1=O [Compound 228] | GI50 [20, 31]: 20 nM
no activity | 20 nM | 40 nM | 84 nM | 60 nM | 83 nM | 33 nM | 30 nM | 100 nM | 35 nM | 29 nM | 80 nM | 13 nM | 50 nM | 49 nM | 60 nM | 37 nM | 20 nM | 39 nM | 60 nM | C/C=C1\NC(=O)c2nc(ccc2SC)CNC(=O)C[C@@H](/C=C/CCSC(C)=O)OC(=O)[C@H](CC)NC1=O [Compound 177] | GI50 [20, 31]: 10 nM
